Data set [1] has as its system dental plaque / plaque forming microorganisms. Briefly: In vivo plaque, gingivitis and periodontal disease treatment of dogs and humans.
Data set [2] relates to gingivitis, plaque and pocket depth in dogs. The data set can be described thus: Oral Clinical Studies - Beagles (dogs). Details: Mean Gingivitis Scores / Mean Plaque Scores: scale not given here. As to conditions: for Mean Gingivitis Scores / Mean Plaque Scores / Mean Pocket Depths / gingivitis, activity in words / return of dental plaque, activity in words: beagles; for Mean Gingivitis Scores / Mean Plaque Scores / Mean Pocket Depths: 0.1% sanguinarine chloride and/or 2.7% zinc chloride; for gingivitis, activity in words / return of dental plaque, activity in words: four weeks of treatment. Format: in vivo, beagle dogs. As to the method:
The dogs were treated topically once daily with the respective test formulation.

In a further data set the test system is Candida albicans. The data set can be described thus: Inhibitory concentration in vitro, separate test. It is filed as cell-based. As to the method:
(§1) A separate test was conducted to determine the inhibitory concentration of sanguinarine chloride alone. These concentrations, for microorganisms in vitro, are as follows: […]

For data set [3], the system named is Escherichia coli. Briefly: Inhibitory concentration in vitro, separate test. It is filed as cell-based. As to the method:
as §1

The subject of data set [4] is Streptococcus mutans. Briefly: Inhibitory concentration in vitro, separate test. It is filed as cell-based. As to the method: as §1
Data set [5] relates to Staphylococcus aureus. Briefly: Inhibitory concentration in vitro, separate test. Format: cell-based. As to the method: as §1
Data set [6] concerns plaque forming microorganisms freshly collected from human dental plaque. Briefly: Dental plaque reduction in vitro. It is filed as cell-based.
Another data set has as its system microorganisms. Briefly: General antimicrobial activity in vitro. Format: cell-based. The source says: When zinc chloride was replaced with a fluoride salt in the present preparations, the activity of the preparation against microorganisms believed to be associated with the causation of dental caries and periodontal disease (Streptococcus mutans), as well as other microorganisms, remained identical.

For a further data set, the system named is infection. The data set can be described thus: In vivo antimicrobial action and tolerability (clinical studies).
In a further data set the test system is Streptococcus faecalis. The data set can be described thus: Mean inactivating dose in vitro. Format: cell-based. The conditions noted are these: per ml of media. As to the method: (§2) In order to illustrate the antimicrobial effectiveness of the composition according to the present invention, a series of in vitro and in vivo tests were performed.
The test system of data set [7] is Escherichia coli. The data set can be described thus: Mean inactivating dose in vitro. As to conditions: per ml of media. Format: cell-based. As to the method: as §2
For another data set, the system named is Saccharomyces cerevisiae. The data set can be described thus: Mean inactivating dose in vitro. It is filed as cell-based. As to conditions: per ml of media. As to the method:
as §2

A further data set deals with Bacillus subtilis. The data set can be described thus: Mean inactivating dose in vitro. Format: cell-based. The conditions noted are these: per ml of media. As to the method:
as §2

The next data set relates to Pseudomonas aeruginosa. The data set can be described thus: Mean inactivating dose in vitro. Format: cell-based. The conditions noted are these: per ml of media. As to the method:
as §2

The next data set concerns Proteus vulgaris. The data set can be described thus: Mean inactivating dose in vitro. Format: cell-based. The conditions noted are these: per ml of media. As to the method: as §2
The test system of data set [8] is Streptococcus mutans. Briefly: Mean inactivating dose in vitro. Format: cell-based. The conditions noted are these: per ml of media. As to the method: as §2
For data set [9], the system named is Staphylococcus aureus. Briefly: Mean inactivating dose in vitro. It is filed as cell-based. The conditions noted are these: per ml of media. As to the method: as §2
The subject of another data set is Klebsiella pneumoniae. Briefly: Mean inactivating dose in vitro. As to conditions: per ml of media. It is filed as cell-based. As to the method: as §2
In the next data set the test system is fungi and protozoa. The conditions noted are these: in solution; cited from earlier work.
[10] abbreviates: 0 (start), baseline, topical once daily.
Where [11] appears, read: after 4 weeks, topical once daily, untreated 0.91.
Where [12] appears, read: after 4 weeks, topical once daily, untreated 1.458.
The mark [13] stands for this setting: after 4 weeks, topical once daily, untreated 12.408.

Structures are written as SMILES. Entries after “also recorded” stand apart in the source; their conditions may differ. Read-outs that look alike come from different tables or passages of the source.

Take `C[n+]1cc2c3c(ccc2c2ccc4cc5c(cc4c21)OCO5)OCO3` [Sanguinarine chloride, sanguinarine chloride]: the “effect against plaque forming microorganisms in vivo” value in [1] (in vivo) is recorded as “ineffective against plaque forming microorganisms”. In addition, in data set [1] (repeated or continuous treatment of affected area, dogs and humans), the “effect on dental plaque, gingivitis and periodontal disease” value was “did not reduce dental plaque or alleviate the symptoms of gingivitis or periodontal disease; also recorded: did not prevent the accumulation of dental plaque on teeth or prevent the occurrence of periodontal disease”. Besides, the “Mean Gingivitis Scores” value amounted to 0.495 in data set [2] (setting [10]) and 0.942 in data set [2] (setting [11]). Also, the results for the “Mean Plaque Scores” value in data set [2] (setting [10]) and in [2] (setting [13]) were 8.885 and 12.89, respectively. The entries for the “Mean Pocket Depths” value in data set [2] (setting [10]) and in data set [2] (setting [12]) were 1.415 and 1.48, respectively. For the same compound, the “plaque and gingivitis scores, rank among groups” value in [2] (24 male beagle dogs, after four weeks, topical once daily) was “highest”. Further, the “gingivitis, activity in words” value in data set [2] is reported as “no activity in vivo at all”. Further, the “return of dental plaque, activity in words” value in data set [2] was “not active in vivo”. Moreover, the MIC in the data set on Candida albicans was 100 µg/mL; with Escherichia coli [3] it was 100 µg/mL; in the data set on Streptococcus mutans [4], 50 µg/mL; with Staphylococcus aureus [5], 10 µg/mL. Besides, in data set [6], the “comparison with chlorhexidine (Hibitane), inhibition of plaque forming microorganisms” value is “compared favorably in vitro to chlorhexidine”. The “reduction of dental plaque” value in [6] (25 micrograms per milliliter) came to 100%. In addition, the antimicrobial properties entry in the data set with microorganisms is “strong antimicrobial properties”; in the data set on microorganisms (listed as sanguinarine chloride), “quite effective against microorganisms”. The “in vivo effectiveness / antimicrobial action” value in the data set with infection is “only slightly effective or not at all; also recorded: only slightly antimicrobial, very slow acting, or had no effect on the course of the infection at all”.

For the compound `[Cl-].[Cl-].[Zn+2]` [Zinc chloride, zinc chloride, reference compound], the Mean inactivating dose is 25,000 μg/ml in the data set on Streptococcus faecalis; 6,250 μg/ml with Escherichia coli [7]; 6,250 μg/ml with Saccharomyces cerevisiae; 25,000 μg/ml with Bacillus subtilis; 3,500 μg/ml in the data set with Pseudomonas aeruginosa; 12,500 μg/ml in the data set on Proteus vulgaris. Also, the figures for the Mean inactivating dose in the data set on Streptococcus mutans [8], with Staphylococcus aureus [9] and in the data set with Klebsiella pneumoniae were 1,563 μg/ml, 6,250 μg/ml and 3,125 μg/ml, respectively. For the same compound, the results for the “Mean Gingivitis Scores” value in data set [2] (setting [10]) and in [2] (setting [11]) were 0.44 and 0.75, respectively. Besides, the “Mean Plaque Scores” value came to 8.76 in data set [2] (setting [10]) and 10.15 in data set [2] (setting [13]). The “Mean Pocket Depths” value in [2] (setting [10]) is listed as 1.46; in data set [2] (setting [12]), 1.37. In addition, the “gingivitis, activity in words” value in [2] is “slightly active”. Further, in [2], the “return of dental plaque, activity in words” value is listed as “slightly preventive”. The antimicrobial properties result in the data set with microorganisms is recorded as “antimicrobial properties only in high concentrations”. Also, the “speed of action in vivo” value in the data set on infection is “slow acting in vivo as an antimicrobial agent”. For the same compound, the “tissue damage / undesirable side effects” value in the data set on infection (concentrations required for antimicrobial action) was “caused blanching of tissue and, in some cases, chemical burns and other tissue damage”.

In the case of `COc1ccc2c(c[n+](C)c3c4cc5c(cc4ccc23)OCO5)c1OC` [chelerythrine chloride], the antimicrobial properties result in the data set on microorganisms is on record as “strong antimicrobial properties”.

Turning to `C[n+]1cc2c3c(ccc2c2ccc4cc5c(cc4c21)OCO5)OCO3` [sanguinarine], the “antifungal and antiprotozoan properties” value with fungi and protozoa was “some antifungal and antiprotozoan properties”.

The values are drawn from patent US4599228A, “Antimicrobial agent” (Vipont Laboratories, Inc., priority 1984, dated 1986).
